ChEMBL document CHEMBL1132004, “Antagonism of the TXA2 receptor by seratrodast: a structural approach” (Bioorg Med Chem Lett, 1999)

Experiment: The pKa of the sulfonamido group of the compound
Format: physicochemical

pKa: 6
Compound: Cc1cccc(Nc2ccncc2S(=O)(=O)/N=C(\NC#N)N2CCCCCC2)c1
